“And” between values parts separate entries of the source, which are not always exact repeats. Equal values may be shown once. Numbered stars: 1 amine (or outer) side, 2 acyl side, 3 side chain; on linkers, the order of the positions; unused ones are H or OH. Bridge positions count the residues as written; N and C are the ends. Square brackets hold non-standard residues; d marks the D form. Peptide text beside a SMILES is read from it. I, II: the chains in the order shown. Actinocin(9to1) = Cc1c2oc3c(C)ccc(C(=O)[*:1])c3nc-2c(C(=O)[*:2])c(N)c1=O; NMeV = CN[C@H](C(=O)O)C(C)C; Sar = CNCC(=O)O
Tests used:
rat testis tubules [1] = test: glucose oxidation (glucose-U-14C) by rat testis tubules in vitro; assay type: cell-based; conditions: for AVERAGE glucose oxidation: average of flasks; for depression of glucose oxidation in vitro: in words; for GLUCOSE OXIDATION per 100 mg / GLUCOSE OXIDATION per flask: individual flask, 250 mg per flask (so in the source), 2 hours, 33° C; for % DEVIATION FROM CONTROL, glucose oxidation: versus saline, 120 min
Procedure: (§1) For these investigations the compounds were diluted in a minimal amount of ethanol and further diluted in saline (0.85%) so that the final concentration was 1 mg/ml. The compounds were placed in solution and gassed under N2 and stored at 5° C until used 2 days later for the in vitro incubation studies. Details of the in vitro incubation procedures may be found in Endocrinology 89:791-800 (1971).
The effects of these compounds on glucose oxidation by testis tubules was examined by incubating about 200 mg of teased testis tubules from mature rats in a 25 ml Erlenmeyer flask containing 3 ml of Krebs Ringer bicarbonate buffer (pH 7.4), D-glucose-U-^14 C (0.5 μCi; 10mM) and 0.25 ml of the azasteroid (1 mg/ml) to be tested. The flasks were incubated for 2 hours at 33° C under 95% O2 :5% CO2. The reaction was terminated by adding 0.25 ml of 5 N H2 SO4. Carbon dioxide was trapped in 0.25 ml of hydroxide of Hyamine. The radioactivity present in the Hyamine was determined by liquid scintillation spectrometry. This table includes a detailed summary of the results obtained and an average for each compound. […] Thus, the compounds have potential for antifertility activity in the control of wild rodent populations and possibly stray animals such as dogs and cats.
CPM = counts per minute. Glucose-U-^14 C activity was 0.5 millicurie.
All compounds were tested in a concentration of 250 mg per flask.

rat testis tubules [2] = test: lysine-U-14C incorporation into protein by rat testis tubules in vitro; assay type: cell-based; conditions: for AVERAGE OF TWO FLASK lysine incorporation: average of two flasks; for protein synthesis by teased testis tubules: in words; for lysine incorporation into protein per 100 mg / lysine incorporation into protein per flask: individual flask, 250 mg per flask (so in the source), 1 hour, 33° C
Procedure: as §1
The effects of the compounds on the incorporation of lysine -U-^14 C into trichloroacetic (TCA) precipitable protein of rat testes was investigated by incubating about 200 mg of teased testis tubules from mature rats in a 25 ml Erlenmeyer flask containing 3 ml of Krebs Ringer bicarbonate buffer (pH 7.4), L-lysine-U-^14 C (0.5 μCi; 0.1mM), glucose (10 mM) and 0.25 ml of the azasteroid to be tested. The flasks were incubated for 1 hour at 33° C under 95% O2 : 5% CO2 and the TCA precipitable protein was isolated and an aliquot used to measure radioactivity.
CPM = counts per minute. All compounds were tested in a concentration of […]

[3] = effects on testis function: body, testis and seminal vesicle weight; assay type: in vivo, mice (ICR-Swiss adult male); conditions: average; 0.2 mg per day s.c., 10 days
Procedure: The compounds as shown in Table 7 were dissolved in a minimal amount of ethanol and diluted in sesame oil (1 mg/ml). After dilution, samples were stored at 5° C in the dark and flushed with N2 every 24 hours. The compounds were injected subcutaneously into adult male mice for a period of 10 days. Each mouse injected received a total dose of 2 mg over the 10 day period or 0.2 mg per day. The mice were random bred males of the ICR-Swiss strain and were used in the study when they reached 75±2 days of age. Mice were maintained in air-conditioned and light-controlled (14 hour light/24 hour) animal quarters and provided with lab food and water ad libitum. Animals were necropsied 24 hours after the last injection. Testes and seminal vesicles were excised, trimmed of adhering tissue and weighed fresh at the nearest one-tenth milligram.

[4] = system: sarcoma 180 ascitis cells; test: antitumor activity, sarcoma 180 ascites in mice, survival; assay type: in vivo, mice (Swiss albino CD-1 female); conditions: i.p., 5 injections
Procedure: The test system utilized involved Swiss albino CD-1 female mice weighing 25-27 grams which were injected (i.p.) with 1 × 10^6 viable sarcoma 180 ascitis cells. Chemotherapy was initiated 24 hours post-injection with a protocol of five intra-peritonaeal injections at 24 hour intervals.
Animals were weighted at 24 hour intervals and the survival time recorded for each test group.

L-M cells = test: growth inhibition of mouse L-M cell line; assay type: cell-based
Procedure: Cells (1 × 10^5 /ml) were added to the "incubated" compound-containing medium.

[5] = system: acid phosphatase, KB and L-M cells; test: relative acid phosphatase staining (permeability of lysosomal membrane) of KB and L-M cells; assay type: cell-based, human (KB) and mouse (L-M); set-up: key to Relative acid phosphatase staining: light: cells showing only a few scattered granules; medium: more dense but distinct isolated granules were still detected; heavy: a more intense staining with fewer discrete granules; conditions: 20 μg/ml
Procedure: KB and L-M cells were grown on coverslips in medium 199 with 10% calf serum for the 24 hour growth prior to staining in the presence or absence of compound 5c (20 μg/ml) or compound 5d (20 μg/ml). The cells were washed in Hanks' salt solution, incubated at 37° C in Gomori's substrate solution for 1, 2, or 3 hours, washed, treated with a 1% solution of ammonium sulfide, washed, mounted and observed microscopically. Light staining was designated as cells showing only a few scattered granules; medium staining was more dense but distinct isolated granules were still detected; and heavy staining a more intense staining with fewer discrete granules. Heavy staining denotes increased phosphatase activity.
The acid phosphatase activity was measured in KB and L-M cells grown in medium in the presence or absence compound 5c or 5d (20 μg/ml) for 2 or 24 hours prior to staining (Table 2). Quantitative evaluation of the relative staining intensity of the lysosomes was compared in the treated and untreated cells. […] Thus, cells grown in the presence of compound 5c accumulate the phosphatase substrate within the lysosomes much more rapidly than the control or compound 5d treated cells indicating the compounds ability to alter membrane permeability and thus regulate the accumulation of essential metabolites. Control of this cellular capacity permits regulation of cell division so important in cancer chemotherapy. Since the permeation of the substrate is the rate-limiting step in the phosphatase determination, compound 5c produces a modification of the lysosomal membrane which increased the permeability of the lysosome to the substrate. The results also emphasize the difference in biological activity of compound 5c and 5d type molecules which chemically are similar except at C-3. Differences in the biological activity have been observed when the compounds were tested using various bacteria.

Cells (1 × 10^5 /ml) = test: potency after pre-incubation of compound in growth medium without cells; assay type: cell-based; conditions: 4 days
Procedure: To ascertain if the potency of compound 5d was reduced during the incubation in the growth medium in the absence of cells, compound 5d (20 μg/ml) was added to the medium and incubated at 37° C on a shaker for 4 days. Cells (1 × 10^5 /ml) were added to the "incubated" compound-containing medium. The inhibition pattern obtained from the "incubated" medium was identical to that obtained when compound 5d (20 μg/ml) was added simultaneously with the inoculation. […] Since the compounds are not inactivated by serum, their effectiveness for animal use or human tests is enhanced. This fact is stressed in animal studies recited in Example IX below.

KB cells [6] = test: relative plating efficiency of KB cells (colony formation, 7 days); assay type: cell-based, human
Procedure: The KB cells were plated in plastic tissue culture dishes and grown in a 5% CO2 gas phase incubator for 7 days. The medium was removed, the plates washed with Hanks' salt solution and the cells stained with a 0.5% aqueous crystal violet solution, rinsed and dried. The colonies were counted and the relative plating efficiency calculated using the number of control colonies as 100 percent.

KB cells [7] = test: growth inhibition of human tumor KB cell line; assay type: cell-based; conditions: 10 μg/ml or greater, read-out: concentration at which growth was inhibited
Procedure: For example, growth of both the human tumor KB* and the mouse L-M** cell lines was inhibited when the cells were grown in media containing 10 μg/ml or greater

B. subtilis W23 = test: antimicrobial activity in combination with selected antibiotics; assay type: cell-based; conditions: alone; B. subtilis W23
Procedure: Several antibiotics act at the cell surface. The antimicrobial activity of the hydroxybenzindazole in combination with selected antibiotics was measured.
Both Polymyxin (Pfizer, Inc.) and Circulin (Upjohn Co.) are surface active compounds thought to cause disorganization of the cell membrane leading to a loss of intracellular components. The enhanced antimicrobial activity observed with the combination of hydroxybenzindazole and antibiotics denotes a more pronounced distortion in the cell surface. Thus, much lower concentrations of the compounds can be used in medicinal applications providing an opportunity for toxic compounds to have greater medicinal applicability and use.
Failure of the mixture of hydroxybenzindazole and chloramphenicol to show an enhanced inhibition of growth could be correlated with the internal site of action of chloramphenicol, which is blockage of the binding of the 30s and 50s ribosomal subunits.

SMILES | AVERAGE glucose oxidation (rat testis tubules [1]) | depression of glucose oxidation in vitro (rat testis tubules [1]) | GLUCOSE OXIDATION per 100 mg (rat testis tubules [1]) | GLUCOSE OXIDATION per flask (rat testis tubules [1]) | % DEVIATION FROM CONTROL, glucose oxidation (rat testis tubules [1]) | AVERAGE OF TWO FLASK lysine incorporation (rat testis tubules [2]) | protein synthesis by teased testis tubules (rat testis tubules [2]) | lysine incorporation into protein per 100 mg (rat testis tubules [2]) | lysine incorporation into protein per flask (rat testis tubules [2]) | Body Weight [3] [g] | Mg Testes Per g Body Wt. [3] [Mg per g] | Seminal Vesicle weight [3] [mg] | Testes Paired weight [3] [mg] | further results
CC12CCc3cc(O)ccc3C1=NNC2=O (racemic) [Compound 4c] | 8,705 CPM/100 mg TISSUE | comparable to saline | 8,847 CPM/100 mg and 8,564 CPM/100 mg | 17,350 CPM/FLASK and 17,325 CPM/FLASK | -19.94% | 1,389 CPM/100 mg tissue | depress protein synthesis | 1,309 CPM/100 mg and 1,470 CPM/100 mg | 2,575 CPM/FLASK and 2,925 CPM/FLASK | 35.7 | 7.28 | 82.1 | 261.0 | 
Cc1c2oc3c(C)ccc(C(=O)N[C@@H]4C(=O)N[C@H](C(C)C)C(=O)N5CCC[C@H]5C(=O)N(C)CC(=O)N(C)[C@@H](C(C)C)C(=O)O[C@@H]4C)c3nc-2c(C(=O)N[C@@H]2C(=O)N[C@H](C(C)C)C(=O)N3CCC[C@H]3C(=O)N(C)CC(=O)N(C)[C@@H](C(C)C)C(=O)O[C@@H]2C)c(N)c1=O [Actinomycin D, reference compound] (I: T[dV]P[Sar][NMeV] / II: T[dV]P[Sar][NMeV]; ester I:1-I:C, II:1-II:C; linker I:N-II:N via Actinocin(9to1)) |  |  |  |  |  |  |  |  |  |  |  |  |  | Survival ratio T/C (survival time of test animal / control animal) ([4]; 4 μg/injection, total 20 μg): 1.9
COc1ccc2c3c(ccc2c1)C1=NCCC1(C)CC3 (stereo not shown) [Compound 5d, 1,10,11,11a-tetrahydro-7-methoxy-11a-methyl-2H-naphth[1,2-g]indole] | 12,140 CPM/100 mg TISSUE | depressed glucose oxidation in vitro more than compounds 4 c and 11b | 16,081 CPM/100 mg and 8,200 CPM/100 mg | 32,194 CPM/FLASK and 16,539 CPM/FLASK | +17.4% | 1,565 CPM/100 mg tissue | depress protein synthesis | 1,585 CPM/100 mg and 1,546 CPM/100 mg | 3,225 CPM/FLASK and 3,125 CPM/FLASK | 32.3 | 6.32 | 67.7 | 201.6 | growth rate versus control (L-M cells; 1 μg/ml): same growth rate as the control; growth inhibition at 20 μg/ml (L-M cells; 20 μg/ml): depressed the growth rate only slightly over the rate observed with 10 μg/ml; inhibition at 10 µg/mL (L-M cells; Mus musculus, 96 h, 10 μg/ml, fourth day, read-out: reduction in growth as compared to the control): 30%; minimal effective concentration (L-M cells; Mus musculus, L-M cells, 10 μg/ml or greater, read-out: concentration at which growth was inhibited): ≥ 10 µg/mL; Relative acid phosphatase staining ([5]; 24 h, 1 hour in substrate): none and did not stain; Relative acid phosphatase staining ([5]; 24 h, 2 hours in substrate): light; Relative acid phosphatase staining ([5]; 24 h, 3 hours in substrate): medium; staining reaction versus control ([5]; 24 h, all three substrate incubation times): identical staining reactions; staining intensity versus untreated cells ([5]; cells treated for 2 hours): indistinguishable from untreated cells; inhibition pattern from incubated medium versus simultaneous addition (Cells (1 × 10^5 /ml); 20 μg/ml, medium pre-incubated 37° C): identical; detoxification by auto-oxidation or enzymatic (serum) processes in culture medium (Cells (1 × 10^5 /ml); 37° C): does not occur; effect on the relative plating efficiency (KB cells [6]; 1 μg/ml): little effect; inhibition of growth compared with control culture (KB cells [6]; 10 and 20 μg/ml): only a very slight inhibition of growth; activity at 1 µg/mL (KB cells [6]; Homo sapiens, KB, 168 h, 1 μg/ml): 97%; activity at 10 µg/mL (KB cells [6]; Homo sapiens, KB, 168 h, 10 μg/ml): 82%; activity at 20 µg/mL (KB cells [6]; Homo sapiens, KB, 168 h, 20 μg/ml): 79%; minimal effective concentration (KB cells [7]): ≥ 10 µg/mL
Oc1ccc2c3c(ccc2c1)-c1[nH]ncc1CC3 [Compound 11a, 10,11-Dihydro-3H-naphth[1,2-g]indazol-7-ol] |  |  |  |  |  |  |  |  |  |  |  |  |  | Survival ratio T/C (survival time of test animal / control animal) ([4]; 0.8 μg/injection, total 4 μg): 1.0
COc1ccc2c3c(ccc2c1)-c1[nH]ncc1CC3 [Compound 11b, 10,11-Dihydro-7-methoxy-3H-naphth[1,2-g]indazole] | 9,550 CPM/100 mg TISSUE | comparable to saline | 11,590 CPM/100 mg and 7,510 CPM/100 mg | 23,529 CPM/FLASK and 15,382 CPM/FLASK |  | 1,155 CPM/100 mg tissue | depress protein synthesis | 1,194 CPM/100 mg and 1,116 CPM/100 mg | 2,325 CPM/FLASK and 2,225 CPM/FLASK | 34.0 | 6.67 | 88.7 | 229.0 | 
CC1(C)S[C@@H]2[C@H](NC(=O)Cc3ccccc3)C(=O)N2[C@H]1C(=O)O [penicillin, reference compound] |  |  |  |  |  |  |  |  |  |  |  |  |  | inhibition of growth, tested separately (B. subtilis W23): very slight inhibition of growth
